Consider three compounds from paper PMC4594923, “Food Polyphenols Fail to Cause a Biologically Relevant Reduction of COX-2 Activity” (PLoS ONE, 2015).

The subject of one data set is MCP–1. As to the kind of experiment: kidney MCP–1 mRNA (qPCR) in LPS induced sepsis in mice. The class given is in vivo, C57BL/6N mice. The following applies: compound i. p. 100 mg/kg bw 2 h before LPS, 24 h after LPS, vs. LPS group. On the procedure: (§1) Samples were stored at -80°C till further analysis. […] Plasma was generated by centrifugation at 4000 g at 4°C and stored at -80°C till further analysis.
(§2) Tissue sections were stored in RNA-later immediately after organ retrieval. Total RNA was extracted using the RNeasy mini kit system (Qiagen, Hilden, Germany) and transcribed using Superscript II Reverse transcriptase (Invitrogen). Quantitative (q) PCR was performed on […] (Roche Diagnostics, Penzberg, Germany) using FastStart Sybr-Green chemistry. Gene-specific primers for IL–6 (Quantitec QT00098875, Qiagen) and MCP–1 (Quantitec QT00167832, Qiagen) were used for the gene of interest and HPRT served as house keeping gene for normalization (Quantitec QT00166768, Qigaen). Quantification was carried out using qgene software.
In general terms: Quantitative PCR measures a nucleic acid by following its amplification.

The subject of the next data set is IL–6. Briefly: kidney IL–6 mRNA (qPCR) in LPS induced sepsis in mice. The format is in vivo, C57BL/6N mice. The following applies: compound i. p. 100 mg/kg bw 2 h before LPS, 24 h after LPS. As to the method: as §1, §2
For data set [1] the following is noted: i.p. 50 mg/kg bw, LPS 37.5 mg/kg bw, 28–42 h post LPS administration; cited from earlier work.
Data set [2] addresses T1, COX–2 (Homo sapiens, UniProt P35354).
T1 sequence (P35354 18-604): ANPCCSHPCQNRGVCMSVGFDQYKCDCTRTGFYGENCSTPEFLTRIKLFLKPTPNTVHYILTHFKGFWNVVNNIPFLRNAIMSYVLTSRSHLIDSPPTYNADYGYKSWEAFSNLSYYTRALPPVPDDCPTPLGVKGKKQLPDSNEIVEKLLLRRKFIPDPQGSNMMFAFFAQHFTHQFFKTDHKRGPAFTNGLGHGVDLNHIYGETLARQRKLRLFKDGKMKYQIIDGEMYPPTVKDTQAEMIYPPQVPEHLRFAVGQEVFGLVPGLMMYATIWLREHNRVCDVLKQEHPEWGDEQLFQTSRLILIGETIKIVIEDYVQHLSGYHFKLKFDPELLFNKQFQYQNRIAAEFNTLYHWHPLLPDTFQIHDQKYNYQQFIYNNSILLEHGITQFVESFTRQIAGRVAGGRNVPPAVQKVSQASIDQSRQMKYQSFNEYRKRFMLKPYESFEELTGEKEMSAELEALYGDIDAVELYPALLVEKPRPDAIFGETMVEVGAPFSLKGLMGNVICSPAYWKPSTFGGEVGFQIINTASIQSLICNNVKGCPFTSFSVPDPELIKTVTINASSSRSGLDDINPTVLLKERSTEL
As to the kind of experiment: PGE2 formation in HCA–7 cells (24 h, LC-MS). The format is cell-based. The following applies: for changes of PGE2 formation in HCA–7 cells: non-cytotoxic concentrations, 24 h.
Procedure: (§3) The in vitro assays were performed as described [6, 16, 18] and COX metabolites were quantified by LC-MS [18].
(§4) HCA–7 cells were incubated with sub-cytotoxic concentrations of the polyphenols dissolved in Tris buffered DMEM medium. Cytotoxicity of the polyphenols was evaluated by the lactate dehydrogenase leakage test (Cyto-Tox-ONE, Promega Mannheim, Germany). After 24 h the supernatant was collected for LC-MS analysis and the cells were harvested to analyze the COX–2 expression by Western Blotting.
After 24 h, the supernatant was sampled for LC-MS and cells were collected for the COX–2 expression analysis by Western Blotting.
(§5) GraphPad Prism 5.0 (GraphPad Software, San Diego, USA) was used for data analysis, the fitting of dose response curves and calculation of the IC50 values. Statistical differences were determined by Dunnetts test (LPS vs. other groups).

The subject of data set [3] is COX–2 protein. Briefly: COX–2 expression in HCA–7 cells (Western Blot). The format is cell-based, human. The following applies: 24 h, vs. control. Background: A western blot detects proteins with antibodies after separation by electrophoresis.
Procedure: as §4
Data set [4] deals with T1, COX–2. As to the kind of experiment: PGE2 formation in LPS stimulated primary human monocytes (24 h, LC-MS). The class given is cell-based.
Procedure: as §3
(§6) Primary human monocytes were freshly isolated from human blood. Blood was collected from healthy human subjects after written informed consent was obtained. […] After 24 h, the supernatant was sampled for LC-MS and cells were collected for the COX–2 expression analysis by Western Blotting.
as §5
The conditions of data set [5]: single soy meal containing 3.6 μmol total genistein/kg bw; cited from earlier work.
Data set [6] has as its system COX–2 protein. As to the kind of experiment: COX–2 expression in LPS stimulated primary human monocytes (Western Blot). The following applies: 24 h, vs. control.
Procedure: as §6

In the case of `O=c1cc(-c2ccc(O)cc2)oc2cc(O)cc(O)c12` [Apigenin, apigenin], the “kidney MCP–1 mRNA levels” value in the data set with MCP–1 is listed as “did not see an effect”. Besides, the “kidney IL–6 mRNA expression” value in the data set with IL–6 (vs. LPS group) is “did not see an effect”. In addition, the mortality entry in data set [1] is on record as “reduced mortality”.
As a reminder, the inhibition is the drop in the measured response relative to a control, in per cent. In general, IC50 refers to the point on the concentration scale where inhibition reaches its midpoint. Consider `O=c1c(-c2ccc(O)cc2)coc2cc(O)cc(O)c12` [Genistein, genistein], for which the inhibition at 100 µM at COX–2 [2] (HCA-7, 100 μM, read-out: inhibition, HCA-7 cell line) was 54%. Besides, the “changes of PGE2 formation in HCA–7 cells” value on COX–2 [2] is listed as “affected”. The “COX-2 Expression, HCA-7 cell line” value was 100 μM:COX–2 ↓ with COX–2 protein [3] and “decreased COX–2 expression” in the data set with COX–2 protein [3] (listed as genistein). Besides, the half-inhibitory concentration (IC50) on COX–2 [4] (IC50 (95% CI), primary monocytes, LPS stimulated, calculated based on PGE2, n = 3, 24 h) was 7.4 µM. Also, the “maximal plasma concentrations (free and conjugated form)” value in data set [5] is 4 µM.
As for `Oc1ccc(/C=C/c2cc(O)cc3c2[C@@H](c2cc(O)cc(O)c2)[C@H](c2ccc(O)cc2)O3)cc1` [ε-Viniferin, ε-viniferin], on COX–2 [2] (calculated based on PGE2, n = 3, 24 h), the “IC50 (95% CI), HCA-7 cell line” value is on record as “no effect (up to 1 μM)”. Besides, at COX–2 [2], the “changes of PGE2 formation in HCA–7 cells” value is reported as “no or only slight”. The “COX-2 Expression, HCA-7 cell line” value in the data set on COX–2 protein [3] is given as “no effect (up to 1 μM)”. The “inhibition, primary monocytes” value against COX–2 [4] (up to 1 μM) is “inhibition < 50% (up to 1 μM)”. Also, the “further increase of kidney IL–6 mRNA expression in comparison to LPS group” value in the data set on IL–6 amounted to 28 fold. For the same compound, the “COX-2 Expression, primary monocytes” value in the data set with COX–2 protein [6] was “no effect (up to 1 μM)”.
